One molecule from patent US20220193092A1, “PROGESTOGEN FOR USE IN THE TREATMENT OF CYTOKINE RELEASE SYNDROME” (Shenzhen Evergreen Therapeutics Co,. Ltd., priority 2020, published 2022) can be followed below.

Type in all cases: cell-based
Test [1] relates to human peripheral blood mononuclear cells (PBMCs). The test is described as follows: T-cell inflammation inhibition assay using PHA: cytokine release from PBMCs. As for the experimental part:
(§1) The human peripheral blood mononuclear cells (PBMCs) used in the following experiments are derived from Eurofins Discovery (St Charles, Mo., USA) and are a mixture of PBMCs from three healthy human subjects (Lot#98, 99, 101).
(§2) 2) T-Cell Inflammation Inhibition Assay Protocol Using Anti-CD3 (OKT3) or PHA
(§3) Cryopreserved PBMCs are drip thawed, pooled and diluted to an appropriate density, and inoculated into a 96-well polypropylene plate (2×10^5 cells per well) with 150 μL per well of culture medium (RPMI 1640, 10% heat inactivated fetal bovine serum, 1% penicillin/streptomycin, 2 mM L-glutamine). The cells are incubated under 5% CO2 at 37° C. for 1 hour before adding HPC. HPC is dissolved in 50% ethanol & PBS, and is further diluted to 20× with cell culture medium. Then HPC is added to the PBMCs in volumes of 10 μL (1×) in triplicate and incubated under 5% CO2 at 37° C. for 16 hours.
(§4) After incubation for 16 hours, 40 μL of anti-CD3 (OKT3, 3 μg/well or 15 μg/mL) or PHA (10 μg/mL) is added to the wells according to the plate layout. The cells are incubated under 5% CO2 at 37° C. for 48 hours. Thereafter, the plates are centrifuged at 200×g for 10 minutes. Cell culture supernatants are collected and stored at −80° C. until use in analysis.
(§5) The cytokine level of each sample is determined using Luminex methodology and carried out in accordance with the manufacturer's protocol. Cytokine levels in the cell culture supernatants are determined in accordance with the manufacturer's protocol using Human Cytokine/Chemokine Magnetic bead panel from Millipore Sigma (catalogue No. HCYTOMAG-60K) with standards range 3.2, 16, 80, 400, 2000, […].
(§6) The following cytokines are measured: IFN-γ, IL-2, IL-6, IL-10 and TNFα.

For test [2] the test system is unchanged. Nature of the test: T-cell inflammation inhibition assay using anti-CD28 super agonist (ANC28.1/5D10): cytokine release from PBMCs. The note with it: PBMCs stimulated by anti-CD28 antibody. As for the experimental part: as §1
1) T-cell Inflammation Inhibition Assay Protocol Using Anti-CD28 Super Agonists First Day
High-binding enzyme-labeled plates are coated with anti-CD28 super agonists (clone ANC28.1/5D10, 2 μg/well) dissolved in PBS 1× and incubated overnight in a biosafety cabinet with lid open and immobilized by air-dry. Cryopreserved PBMCs are drip thawed, pooled and diluted to an appropriate density, and then are inoculated into a U bottom 96-well polypropylene plate (1.2×10^5 cells per well) with 228 μL per well of culture medium (RPMI 1640, 10% heat inactivated fetal bovine serum, 1% penicillin/streptomycin, 2 mM L-glutamine). The cells are incubated under 5% CO2 at 37° C. for 1 hour before adding HPC. HPC is dissolved in 50% ethanol & PBS, and is further diluted to 20× with cell culture medium. Then HPC is added to the PBMCs in volumes of 12 μL (1×) in triplicate and incubated under 5% CO2 at 37° C. for 16 hours.
After 16 hours of incubation, 200 μL of cells (1×10^5) treated with HPC or a control reagent are transferred to the anti-CD28 coated enzyme-labeled plates, and incubated under 5% CO2 at 37° C. for 48 hours. For the negative control groups, 200 μL of cells (1×10^5) are transferred to an enzyme-labeled plate coated with anti-CD28 or isotype IgG1. After 48 hours of incubation, the enzyme-labeled plates are centrifuged at […] for 10 minutes. Cell culture supernatants are collected and stored at −80° C. until use in analysis.
as §5, §6

Test [3] has the same test system. Nature of the test: T-cell inflammation inhibition assay using anti-CD3 (OKT3): cytokine release from PBMCs. The note with it: PBMCs stimulated by OKT3. As for the experimental part: as §1, §2, §3, §4, §5, §6
[4] abbreviates: PBMCs stimulated by PHA (10 μg/mL), 16 h HPC pre-incubation, 48 h stimulation, Luminex.
[5] abbreviates: 16 h HPC pre-incubation, 48 h stimulation, Luminex.

Structures are written as SMILES.

Consider `CCCCCC(=O)O[C@]1(C(C)=O)CC[C@H]2[C@@H]3CCC4=CC(=O)CC[C@]4(C)[C@H]3CC[C@@]21C` [HPC, hydroxyprogesterone caproate], for which the “inhibition of IL-2, IL-6, IL-10 and TNF-α release: concentration dependence” value in test [1] (PBMCs stimulated by PHA) was “concentration dependent”. Besides, in test [1] (setting [4]), the “release of IL-2” value is listed as “significantly inhibited”, the “release of IL-6” value is given as “significantly inhibited”, the “release of IL-10” value is “significantly inhibited” and the “release of TNF-α” value was “significantly inhibited”. The “inhibition effect on IL-10 and IFN-γ release: concentration dependence” value in test [2] is listed as “concentration dependent”. For the same molecule, in test [2] (setting [5]), the “release of IFN-γ” value is given as “significantly inhibited”, the “release of IL-6” value is on record as “significantly inhibited”, the “release of IL-10” value is “significantly inhibited” and the “release of TNF-α” value was “significantly inhibited”. Moreover, in test [3], the “inhibition effect on IL-6 and IL-10 release: concentration dependence” value is “concentration dependent”. In test [3] (setting [5]), the “release of IFN-γ” value was “significantly inhibited”, the “release of IL-6” value is on record as “significantly inhibited” and the “release of IL-10” value was “significantly inhibited”.
